The structures appear in SMILES notation. The source made the active and inactive calls. The rule behind the calls is not given here.

Here are results for 83 molecules from PubChem BioAssay AID624258 (Broad Institute, 2012).

One assay in a line: SKN7 mediated toxicity in Saccharomyces cerevisiae, growth rescue counterscreen, dose confirmation (AID 624258).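 Note: growth read after three days of incubation at 30 °C; 0% = median of neutral control wells.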 Conditions: S. cerevisiae SKN7-toxicity growth rescue, plate reader; at 2.1 µM (top of the series). For orientation: The purpose of a counterscreen is to sort out artefacts and off-target activity.
On to `CCc1ccc(C(C)NC(=S)NC2CCCCC2)cc1` (stereo not drawn), for which the growth rescue activity was -19.4% (inactive).

The same assay, now with this note: S. cerevisiae SKN7-toxicity growth rescue, plate reader; at 6.8 µM (top of the series).
`CCc1c(C2(O)CCCCC2)[nH]c2ccc(C(F)(F)F)cc12`: the growth rescue activity was 85.9% (inactive). The same measure, in the same setting: then `O=C(c1cc([N+](=O)[O-])cc([N+](=O)[O-])c1)N(Cc1nnc(-c2ccccc2Cl)o1)C1CC1`, with -38% (inactive); and `CCCn1c2ccccc2c2cc(C(=O)O)ccc21`, with -29.3% (inactive); and `CC1(C)CC(=O)C(C2C3=C(CC(C)(C)CC3=O)Oc3c(Br)cc(Br)cc32)=C(O)C1` (stereo not drawn), with -21.5% (inactive).

As to `CC(C)(C)n1nc(Cc2cccc3ccccc23)c2c(N)ncnc21`, the growth rescue activity is -49.1% (inactive).

The same assay, now with this note: S. cerevisiae SKN7-toxicity growth rescue, plate reader; at 19.5 µM (top of the series).
Take `COc1cccc2c1C(=O)c1c(O)c3c(c(O)c1C2=O)CC(O)(C(C)=NNC(=O)c1ccc(Cl)c(Cl)c1)CC3OC1CC(N)C(O)C(C)O1` (stereo not drawn): the growth rescue activity was 23.8% (inactive). As to `O=C(C1CCN(C2CC(=O)N(c3cccc(Cl)c3)C2=O)CC1)N1CCCC1` (stereo not drawn), the growth rescue activity was 84.3% (inactive). Turning to `O=C(CN1CCN(c2ncc(C(F)(F)F)cc2Cl)CC1)NCCNc1ncc(C(F)(F)F)cc1Cl`, the growth rescue activity is -35.8% (inactive).

For `CC(C)(CN1CCc2ccccc2C1)NS(=O)(=O)c1ccc(Cl)cc1`, the growth rescue activity is -9.34% (inactive).

As to `Cc1nc2ccc(C(C(F)(F)F)(C(F)(F)F)C(F)(F)F)cc2[nH]1`, the growth rescue activity is -85.7% (inactive).

For the molecule `CC12CNCC(C)(CN(C3(O)C(=O)Nc4ccc(Br)cc43)C1)C2=O` (stereo not drawn), the growth rescue activity is -39.9% (inactive). `O=C1C=C(NCc2ccccc2)c2ccccc2C1=O`: the growth rescue activity was 41.7% (inactive).

As to `C/C(=N\NC(=O)COc1ccccc1-c1ccccc1)c1ccccn1`, the growth rescue activity was -11.5% (inactive). Same read-out and setting: in the case of `CC(C)(C)OC(=O)N1CCC(c2cc(-c3cccs3)n[nH]2)CC1` it was -58.6% (inactive); in that of `CC(=O)c1c(O)ccc2c(-c3ccccc3)cc(=O)oc12`, -69.1% (inactive); in that of `COc1ccc(C2=CC(=O)C[C@H](c3ccc4c(c3)OCO4)C2)cc1`, 89.7% (inactive).

On to `O=C(c1ccc(-c2ccccc2)c(F)c1)C1CCCN(C(=O)c2cncs2)C1` (stereo not drawn), for which the growth rescue activity was -45.2% (inactive).

In the case of `C(=C1c2ccccc2-c2ccccc21)c1ccncc1`, the growth rescue activity is -46.7% (inactive). Still for that read-out and setting: then `CC(=N/O)/C(=N\O)c1ccc(C)o1`, with 3.21% (inactive).

For `Cc1cccc(Nc2nc(-c3ccccn3)cs2)n1`, the growth rescue activity is -59.7% (inactive). On the same count and under the same terms, in the case of `Cc1cccc(N=Cc2[nH]c3ccc(Br)c(Cl)c3c2O)c1` it was -14.7% (inactive). Same read-out and setting: then `COc1ccc(-c2nc(N)sc2C2(O)C(=O)Nc3c(Br)cc(F)cc32)cc1OC` (stereo not drawn), with 0.392% (inactive). The same measure, in the same setting: then `CCc1cc(-c2[nH]ncc2-c2ccc([N+](=O)[O-])cc2)c(O)cc1OC`, with -43.8% (inactive).

Consider `O=C(c1cc(COc2ccc(F)cc2Cl)on1)N1CCC(c2ccncc2)CC1`, for which the growth rescue activity was -20.9% (inactive). In the case of `Cc1ccccc1C(=O)NNC(=S)NC(=O)c1ccc(Cl)cc1Cl`, the growth rescue activity is -23.2% (inactive). With `OCCN(CCO)c1cc2c3ccccc3ccc2c2ccccc12`, the growth rescue activity was 9.38% (inactive). On the same count and under the same terms, in the case of `Cn1cc(SCC(=O)Nc2nc3ccccc3s2)c2ccccc21` it was -62.4% (inactive); in that of `Cc1nc(Sc2ccccc2)c(C#N)c(C)c1[N+](=O)[O-]`, 147% (inactive). Still for that read-out and setting: then `O=C(NCc1ccncc1)c1ccccc1Nc1ccc(SC(F)F)cc1`, with -49.8% (inactive); and `COc1cc2c(c(OC)c1OC)-c1ccc(O)c(=O)cc1[C@@H](NC(C)=O)CC2`, with -29.6% (inactive). Same read-out and setting: in the case of `COc1cccc(/C=N/Nc2ncnc3scc(-c4ccccc4)c23)c1O` it was -79.1% (inactive); in that of `O=C(NCCN1C(=O)S/C(=C\c2cccc(Cl)c2Cl)C1=O)C1=COCCO1`, 13.6% (inactive). Consider `Oc1c(Cl)cc(Cl)cc1/C=N/NC(=S)NC1CC2C=CC1C2` (stereo not drawn), for which the growth rescue activity is -42.5% (inactive).

Regarding `COC(OC)c1ccc(C#N)c(SCc2ccccc2)n1`, the growth rescue activity was -28.8% (inactive). Still for that read-out and setting: in the case of `Cc1cc(O)c(-c2cc(O)c(C)cc2O)cc1O` it was -8.5% (inactive); in that of `O=C(NCc1ccccc1)c1ccc2nccnc2c1`, 17.6% (inactive). Same read-out and setting: then `[O-][n+]1cccc2c(Br)cc(Br)c(O)c21`, with -82.7% (inactive); and `FC(F)(F)c1nc(SCc2ccc(Cl)cc2Cl)n[nH]1`, with -80.8% (inactive); and `CC(C)=CCc1c(O)ccc(C(=O)Cc2ccccc2)c1O`, with -92.2% (inactive).

As for `Cc1[nH]n(C(N)=S)c(=O)c1N=Nc1ccc2ccccc2c1`, the growth rescue activity is -41.4% (inactive). On the same count and under the same terms, then `CC12CCC(O)CC1=CCC1C2CCC2(C)C3=NN=CC3CC12` (stereo not drawn), with -53.7% (inactive); and `CCOC(=O)c1ccc(NC(=S)N(Cc2cccnc2)Cc2ccco2)cc1`, with -37.1% (inactive); and `COC(=O)c1cccc2c1-c1ccccc1/C2=N/O`, with 30.5% (inactive). Same read-out and setting: in the case of `CCN1/C(=C/c2sc(-c3ccccc3C)c[n+]2C)Sc2ccccc21` it was -60.6% (inactive); in that of `Oc1ccc(N=Nc2ccc3c(c2)OCCO3)c2cccnc12`, -42.4% (inactive); in that of `Cc1cc(C)c(C(=O)CC(=O)c2cccnc2)c(C)c1`, -57.9% (inactive). For `Cc1cccc2sc(NNC(=O)c3ccc(S(=O)(=O)N4CCCC(C)C4)cc3)nc12` (stereo not drawn), the growth rescue activity was -51.9% (inactive). Same read-out and setting: in the case of `COc1ccc(OCC(=O)NNC(=S)NC(=O)C2CCCCC2)cc1` it was -64.8% (inactive); in that of `Cc1nc2c(o1)C(=O)c1ccccc1C2=Nc1ccccc1`, -29.5% (inactive); in that of `C[C@@]12CCC3[C@@](CCC4[C@@]3(C)CCC[C@@]4(C)C(=O)NCc3ccccc3)(CC1=O)C2` (stereo partly drawn), -51.4% (inactive). Regarding `Cc1oc2c(c1C(=O)c1ccccc1)C(=O)C(=O)c1ccccc1-2`, the growth rescue activity is 16.8% (inactive). Still for that read-out and setting: then `CC12CC3(C)CC(C)(C1)CC(NC(=O)N1CCCC1)(C2)C3`, with -73.5% (inactive); and `CCCCNc1c(-c2cccc(-c3ccc(OC)cc3)c2)nc2ccc(C)cn12`, with -90.6% (inactive). Turning to `COC(=O)C(=N/Nc1ccccc1C(=O)OC)/C(C)=N/O`, the growth rescue activity was -7.81% (inactive). For the molecule `CC(=O)NC(c1ccc(C)cc1)c1cc([N+](=O)[O-])c2cccnc2c1O` (stereo not drawn), the growth rescue activity was 61% (inactive). Same read-out and setting: then `S=C(NNc1ccc2ccccc2c1)NC1CCCCC1`, with -14.9% (inactive). Same read-out and setting: in the case of `Cc1ccc(-c2c3c(nc4sc(C(N)=O)c(N)c24)CCCC3)o1` it was -35.3% (inactive); in that of `CC(=O)C1=C(c2cccc([N+](=O)[O-])c2)N(C(C)=O)n2c(C)nnc2S1`, -84.3% (inactive). Turning to `Cc1cccc(Oc2nc(-c3ccccn3)nc3ccccc23)c1`, the growth rescue activity is -67.8% (inactive). On the same count and under the same terms, then `CC1=C(C)C(=O)C(CCCCC#CCCCC#CCO)=C(C)C1=O`, with -34.8% (inactive); and `O/N=C/c1cc(Br)ccc1OCc1ccccc1F`, with -57.4% (inactive).

In the case of `Cc1cc(SC#N)cc(C)c1NC(=O)CCl`, the growth rescue activity was -87% (inactive).

Turning to `Cn1nc(C(F)(F)F)c(C#N)c1N1CCN(c2ccc(F)cc2)CC1`, the growth rescue activity is -49.6% (inactive). The same measure, in the same setting: then `C=CCc1cccc(C=Nc2cc(Br)ccc2O)c1O`, with -45% (inactive); and `O=c1c(CO)cc(CO)cc(CO)c1O`, with -26.9% (inactive). The same measure, in the same setting: in the case of `C[C@]12CC[C@H](O)CC1=CCC1C2CC[C@@]2(C)C1CC[C@@H]2NC(=O)[C@@H](N)Cc1ccccc1` (stereo partly drawn) it was 15.7% (inactive); in that of `CN(C(=O)COC(=O)c1ccc([N+](=O)[O-])cc1Cl)C1CCCCC1`, 139% (inactive); in that of `CCCSC(=S)c1c(C)[nH]n(-c2ccccc2)c1=O`, -53% (inactive).

In the case of `Cn1c(CNc2ccccc2O)nc2ccccc21`, the growth rescue activity is -50% (inactive). The same measure, in the same setting: in the case of `Nc1nc2sc3c(c2c(=O)s1)CCCC3` it was -93.9% (inactive). On the same count and under the same terms, in the case of `CCCCCCCn1c(=O)c(C(=O)OC)c(N)c2ccccc21` it was -87.1% (inactive); in that of `Cc1cc(O)ccc1N=Cc1c(C(F)(F)F)[nH][nH]c1=O`, -11.8% (inactive); in that of `O=C(COc1ccc(Cl)cc1)Nc1cccc(-c2ccc3nncn3n2)c1`, 13% (inactive). Still for that read-out and setting: then `Cc1cc(C(F)(F)F)n2[nH]c(=O)c(N=Nc3ccccc3)c2n1`, with -58.6% (inactive); and `CCO/C=C1/C(=O)N(Cc2ccccc2)C(=O)c2ccccc21`, with 2.35% (inactive); and `O=C(NCCC(=O)N1CCN(c2ccccc2O)CC1)c1ccc(Br)cc1`, with -9.2% (inactive). Take `Cn1c(SCC(=O)N2c3ccccc3Sc3ccc(Cl)cc32)nnc1-c1ccco1`: the growth rescue activity was -51.2% (inactive). Consider `CCCCNC(=S)N/N=C1\CCCCc2ccccc21`, for which the growth rescue activity is -53.8% (inactive). Still for that read-out and setting: then `CCCC(C)Sc1nc2c([nH]1)c(=S)n(C)c(=O)n2C` (stereo not drawn), with -31.9% (inactive); and `O=C(CSc1nccn(-c2cccc(F)c2)c1=O)Nc1ccc(Cl)cc1F`, with 26.9% (inactive). Same read-out and setting: in the case of `CCCCCCn1c(=O)c(C(=O)Nc2ncccc2C)c(O)c2ccccc21` it was -12.8% (inactive); in that of `CCn1c2ccc(C)cc2c2nc3cc(C(=O)O)ccc3nc21`, 18.7% (inactive).
